# Measured values published in ChEMBL document CHEMBL1157539, “Thousands of chemical starting points for antimalarial lead identification” (Nature, 2010).
# Test system: Plasmodium falciparum
# Experiment: GSK_TCMDC: Inhibition of Plasmodium falciparum 3D7 in whole erythrocytes, using parasite LDH activity as an index of growth.
# Format: functional, organism-based
# Details: Plasmodium falciparum, 3D7
row,Compound,XC50 [nM]
1,C[C@H](Cc1ccc(OCCNC[C@H](O)c2cccc(Cl)c2)cc1)NC[C@H](O)c1ccc(Cl)c(Cl)c1,958
2,CS(=O)(=O)N(c1ccccc1)c1cc(C(=O)N[C@@H](Cc2ccccc2)[C@H](O)CNC2CCCCC2)cc(N2CCCC2=O)c1,78.1
3,C=CCOC(=O)N1CCC(CNCc2ccc(-c3cccc(-c4nc5cccc(C)c5[nH]4)c3)cc2)C1 (centres undefined),118
4,COc1ccc(Cl)cc1-c1nc(C(=O)NCCN2CCCCC2)c(C(C)C)s1,753
5,COc1ccccc1C1CCN(C2CCC(NC(=O)c3cc4cc(C(C)C)ccc4[nH]3)CC2)CC1 (centres undefined),850
6,Cc1ccc(F)c(OC2CCN(c3ccc(C(=O)NC4CC4)cn3)CC2)c1,823
7,Nc1nc(N)c2c(Oc3cccnc3)cccc2n1,886
8,COc1ccc(CNCCCCCNCc2ccc(Cl)c(Cl)c2)cc1Cl,751
9,C=C[C@H]1CN2CC[C@H]1C[C@H]2[C@H](OS(=O)(=O)O)c1ccnc2ccccc12,624
10,CC(C)c1ccc(NC(=O)c2cccc(CN3CCCN(CC4CCCCC4)CC3)c2)cc1,710
11,N=C1NC(c2ccccc2)(c2ccccc2)C(=O)N1CC=Cc1ccccc1,598
12,O=C(C=Cc1ccc(Cl)c(Cl)c1)NCCCCCN1CCC(CCCNC(=O)c2ccc3c(c2)OCO3)CC1,149
13,Cn1nc(C(F)(F)F)c(-c2ccc(Br)cc2)c1NC(=O)Nc1ccc(F)cc1F,793
14,COc1ccc(C(=O)C2CC2CN(C)CCC(O)c2ccc(Cl)c(Cl)c2)cc1 (centres undefined),873
15,COc1cc(CN2CCN(c3ccnc(N(C)C4CCN(C)CC4)n3)CC2)cc(Cl)c1O,784
16,O=C(Nc1ccc(Cl)cc1)Nc1ccc2nonc2c1,1100
17,CC(=O)Nc1ccc(Nc2cc(C)nc(Nc3ccc(NC(C)=O)cc3)n2)cc1,894
18,Cc1cc(C)c(NC(=O)NC2CCN(CCCCCNC(=O)/C=C/c3ccc(Cl)c(Cl)c3)C2)c(C)c1 (centres undefined),186
19,Cc1cccc2nc(-c3cccc(-c4cccc(C(=O)NCc5nccn5C)c4)c3)[nH]c12,528
20,Cc1ccccc1C1CCN(C2CCC(NC(=O)c3cncc(-c4ccccc4)c3)CC2)CC1 (centres undefined),930

row,Compound,XC50 [nM]
1,O=C(/C=C/c1ccc(Cl)c(Cl)c1)N1CCC(CN2CCC(c3c[nH]c4cc(C(F)(F)F)ccc34)CC2)CC1,796
2,N#Cc1ccc(N/C(=N\c2ccccc2Br)N(C2CCCCC2)C2CCCCC2)c(O)c1,785
3,COc1cccc(-c2ccc(C(=O)NC3CCN(Cc4ccc(N(C)C)cc4)CC3)s2)c1,1390
4,O=C(/C=C/c1ccc(Cl)c(Cl)c1)NCCCCCN1CCCC(C(=O)Nc2cccc(Cl)c2)C1 (centres undefined),895
5,COc1cccc2cc(C(=O)N[C@@H](CC(C)C)C(=O)N[C@H](C=NNC(=O)OC(C)(C)C)Cc3ccccc3)oc12,304
6,Cc1[nH]c(C)c(-c2ccc(OCCSc3ccncc3)cc2)c(=O)c1Br,393
7,CN(C)C1CCN(Cc2ccc(N3CCN(Cc4cccc5[nH]ccc45)CC3)nc2)CC1,1530
8,CCCCCCCC1CC(CC(=O)Nc2ccnc3ccc(OC)cc23)CN1 (centres undefined),511
9,O=C(/C=C/c1ccc(Cl)c(Cl)c1)NC1CCC(CN2CCC(c3coc4ccccc34)CC2)CC1 (centres undefined),826
10,COc1ccc(N2CCc3c(-c4cccc5cnccc45)cc(C)nc32)c(C)c1,655
11,O=C(/C=C/c1ccc([N+](=O)[O-])cc1)N1CCC(NS(=O)(=O)c2ccc(F)cc2)CC1,824
12,CCCNC(=O)c1ccc(N2CCC(c3ccccc3C)CC2)nc1,1520
13,N#Cc1ccc(N(CCOc2ccc3c(c2)CCC(=O)N3)Cc2ccccc2C(F)(F)F)cc1C(F)(F)F,763
14,Fc1cccc(COc2ccc(Nc3ncnc4cc(/C=C/[C@@H]5CCCN5)sc34)cc2Cl)c1,592
15,Cc1cc2nc(-c3cc(-c4cccc(NS(C)(=O)=O)c4)cnc3N)[nH]c2cc1C,672
16,CCc1nnc2sc(-c3cccc(NC(=O)c4ccc(OC)c(Cl)c4)c3)nn12,1140
17,COc1cc(C=NNc2ccnc3cc(Cl)ccc23)ccc1O,134
18,CC(C)(C)c1ccc(Cn2nc(C(=O)N3CCN(C(=O)C4CCCO4)CC3)c3ccccc32)cc1 (centres undefined),1320
19,Cc1ccccc1NC(=O)C1CSCN1C(=O)OCc1ccccc1 (centres undefined),983
